Laboratory results taken from patent publication US20080292584A1 (priority 2005, published 2008).
Where “and” joins values, the source holds several entries; their conditions need not be identical. Equal entries are not always repeated. Where two headings read alike, the source gives them in different places.

What was measured:
CYP2B6 = biological target: T1, CYP2B6 (Homo sapiens, UniProt P20813); assay: Metabolism of metaxalone by expressed recombinant human CYP2B6 at 5 or 20 pmol (Example 4); conditions: for % Turnover Mean / [metaxalone] Mean / % Turnover % / [metaxalone]: 60 min; for % Turnover % / [metaxalone]: single replicates
T1 sequence (P20813 1-491): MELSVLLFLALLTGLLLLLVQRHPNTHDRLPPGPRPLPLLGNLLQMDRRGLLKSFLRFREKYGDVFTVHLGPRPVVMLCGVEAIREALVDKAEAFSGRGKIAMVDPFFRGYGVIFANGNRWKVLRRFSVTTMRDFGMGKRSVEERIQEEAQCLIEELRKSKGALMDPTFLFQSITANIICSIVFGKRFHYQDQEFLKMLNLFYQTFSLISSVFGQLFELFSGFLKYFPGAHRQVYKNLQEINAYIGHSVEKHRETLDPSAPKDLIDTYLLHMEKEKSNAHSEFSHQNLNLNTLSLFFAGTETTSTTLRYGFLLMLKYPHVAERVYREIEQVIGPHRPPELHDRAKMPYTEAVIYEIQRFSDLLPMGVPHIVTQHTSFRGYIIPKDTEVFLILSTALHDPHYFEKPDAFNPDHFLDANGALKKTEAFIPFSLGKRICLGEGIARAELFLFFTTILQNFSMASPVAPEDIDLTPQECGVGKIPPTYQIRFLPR

CYP3A4 [1] = biological target: T2, CYP3A4 (Homo sapiens, UniProt P08684); assay: Induction/inhibition of CYP3A4 activity in cryopreserved human hepatocytes (testosterone)
Description: Hepatocytes from three human donors were obtained from a cryopreserved hepatocyte bank (In Vitro Technologies, Inc., USA). After thawing, viable hepatocytes were transferred to collagen-coated 48-well plates for attachment in plating medium (DMEM stock (Dulbecco's modified Eagle's medium, supplemented with bovine serum albumin, fructose, N-(2-hydroxyethyl)piperazine-N′-(2-ethanesulfonate) (HEPES), and sodium bicarbonate), supplemented with antibiotics, bovine serum, hydrocortisone, insulin and minimum essential medium (MEM) nonessential amino acids). After attachment to the collagen matrix, plating medium was replaced with sandwich medium (plating medium supplemented with VITROGEN) and incubated until use.
The supplemented KHB was replaced with 150 μL supplemented KHB containing the appropriate isoform-selective substrate and incubated for 4 hrs prior to termination by adding 150 μL ice-cold methanol, except for the CYP2C8 incubations which were terminated by adding 150 μL acetonitrile.
All substrates were dissolved in acetonitrile.
Replicate trials and controls were performed. […] Additionally, reference control samples were included to evaluate inducibility of CYP2B6, CYP2C9, and CYP2C19 in the test system.
Mean specific activity values with associated p-values≦0.05 were deemed to be statistically significant.
Target sequence in this assay (P08684 whole entry): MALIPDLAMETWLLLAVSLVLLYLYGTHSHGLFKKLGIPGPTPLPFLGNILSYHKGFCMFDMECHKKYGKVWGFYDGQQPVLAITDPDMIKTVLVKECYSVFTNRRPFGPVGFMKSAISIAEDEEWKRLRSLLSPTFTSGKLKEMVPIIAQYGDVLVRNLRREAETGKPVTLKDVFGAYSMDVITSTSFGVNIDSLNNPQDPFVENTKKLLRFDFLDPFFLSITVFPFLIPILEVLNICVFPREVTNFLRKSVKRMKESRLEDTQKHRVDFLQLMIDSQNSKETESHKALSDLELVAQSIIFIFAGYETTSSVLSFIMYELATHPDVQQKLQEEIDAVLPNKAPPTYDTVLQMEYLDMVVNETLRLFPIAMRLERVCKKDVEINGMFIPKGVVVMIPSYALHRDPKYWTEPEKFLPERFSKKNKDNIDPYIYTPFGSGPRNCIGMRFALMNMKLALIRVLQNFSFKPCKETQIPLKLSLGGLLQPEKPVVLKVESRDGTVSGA

CYP3A4 [2] = biological target: T2, CYP3A4; conditions: for % Turnover Mean: both, human, microsomes, 1 h, pH 7.4
Target sequence in this assay (P08684 whole entry): as above
Method: (§1) Human liver microsomes pooled from 15 individuals (male and female) (Pool HMMC-PL020; CellzDirect, Inc., In Vitro Products and Services Division) were used in some experiments of this study.
(§2) % Turnover=100−{[TA(final)]/[mean of TA(0 min)]}×100,
(§3) % Inhibition of Turnover=100{1−([TA(0 min)]−[TA(final-inhibitor)])/([TA(0 min)]−[TA(final-no inhibitor)])}.
(§4) The inhibitors or vehicle control were incubated with the pooled human liver microsomes (1 mg/mL) and NADPH (1 mM) in 0.1 M phosphate buffer, pH 7.4. […] Incubations were conducted in triplicate and terminated by addition of organic solvent. Samples were extracted and analyzed by LC-MS/MS as described above.

CYP2C9 = CYP2C9 (Homo sapiens, UniProt P11712); assay: Inhibition of CYP2C9 activity in pooled human liver microsomes (tolbutamide 150 μM to 4′-methylhydroxytolbutamide); format: in vitro ADME; design: host or cells: cryopreserved primary human hepatocytes from three donors
Method: All other incubations were for 30 minutes.
Four replicates were performed.
Two replicates were performed.

CYP2E1 = CYP2E1 (Homo sapiens, UniProt P05181); assay: Chemical inhibition of metaxalone turnover in human liver microsomes, CYP2E1 inhibitor clomethiazole; conditions: 1 mg/mL HLM, 60 min, with clomethiazole; for % Turnover / % inhibition of turnover / Conc.: single replicates
Method: as §1, §2, §3, §4

CYP3A4 [3] = biological target: T2, CYP3A4; assay: Metabolism of metaxalone by expressed recombinant human CYP3A4 (Example 1); conditions: 30 min;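 note: microsomes holding 10 pmol P450, reactions started by an NADPH regenerating system after 5 min preincubation, 0.5 mL final volume, background signal taken from matrix controls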
Target sequence in this assay (P08684 2-503 limits assumed): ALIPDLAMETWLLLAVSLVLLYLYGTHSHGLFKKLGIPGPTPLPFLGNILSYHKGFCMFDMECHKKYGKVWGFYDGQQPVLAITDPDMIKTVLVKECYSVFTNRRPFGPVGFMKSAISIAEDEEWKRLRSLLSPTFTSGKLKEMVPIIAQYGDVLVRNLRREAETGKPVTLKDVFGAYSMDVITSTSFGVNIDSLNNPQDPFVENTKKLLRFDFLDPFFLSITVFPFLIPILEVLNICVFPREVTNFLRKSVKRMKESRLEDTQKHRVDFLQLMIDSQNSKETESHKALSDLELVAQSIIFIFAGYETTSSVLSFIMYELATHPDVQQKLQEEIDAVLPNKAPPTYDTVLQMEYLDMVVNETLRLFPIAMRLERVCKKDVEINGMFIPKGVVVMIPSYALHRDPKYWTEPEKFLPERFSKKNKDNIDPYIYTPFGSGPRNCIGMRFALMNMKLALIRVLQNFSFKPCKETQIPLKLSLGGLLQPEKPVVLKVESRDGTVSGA
Method: Commercially available microsomes from baculovirus-infected insect cells containing singly-expressed recombinant wild-type (*1 allele) human CYP enzymes and cDNA-expressed human cytochrome p450 oxidoreductase [BD SUPERSOMES Enzymes; BD Biosciences Discovery Labware (Woburn, Mass.)] were used.
After a 5-minute pre-incubation, an NADPH regenerating system (NRS) was added to the incubation mixtures to initiate reactions, with a final incubation volume of 0.5 mL. Incubations were continued for 30 minutes, and then terminated, except for those for CYP2C19, which were incubated for 36 minutes prior to termination.
Matrix controls were performed to determine the background signal from the matrix components (microsomes (10 pmol p450), 01N Tris buffer, NRS, and 1% methanol). […] After a 5-minute pre-incubation, 2% sodium bicarbonate solution was added to the incubation mixtures. Incubation was for 30 minutes at a final volume of 0.5 mL. Matrix and metabolic negative controls were terminated by adding an equal volume of methanol. […] Analysis of samples was subsequent to storage at −70° C.

[4] = 0.75 μM metaxalone, 5 pmol cyp, listed as Metaxalone
[5] = 0.75 μM metaxalone, 20 pmol cyp
[6] = 0.75 μM metaxalone, 20 pmol cyp, listed as Metaxalone
[7] = 7.5 μM metaxalone, 5 pmol cyp, listed as Metaxalone
[8] = 7.5 μM metaxalone, 20 pmol cyp, listed as Metaxalone
[9] = 0.75 μM metaxalone, 1 mg/mL HLM, 60 min, with ketoconazole
[10] = 0.75 μM metaxalone, 1 mg/mL HLM, 60 min, with ketoconazole, single replicates
[11] = 7.5 μM metaxalone, 1 mg/mL HLM, 60 min, with ketoconazole
[12] = 7.5 μM metaxalone, 1 mg/mL HLM, 60 min, with ketoconazole, single replicates

Sequence of CYP2E1 (P05181 whole entry): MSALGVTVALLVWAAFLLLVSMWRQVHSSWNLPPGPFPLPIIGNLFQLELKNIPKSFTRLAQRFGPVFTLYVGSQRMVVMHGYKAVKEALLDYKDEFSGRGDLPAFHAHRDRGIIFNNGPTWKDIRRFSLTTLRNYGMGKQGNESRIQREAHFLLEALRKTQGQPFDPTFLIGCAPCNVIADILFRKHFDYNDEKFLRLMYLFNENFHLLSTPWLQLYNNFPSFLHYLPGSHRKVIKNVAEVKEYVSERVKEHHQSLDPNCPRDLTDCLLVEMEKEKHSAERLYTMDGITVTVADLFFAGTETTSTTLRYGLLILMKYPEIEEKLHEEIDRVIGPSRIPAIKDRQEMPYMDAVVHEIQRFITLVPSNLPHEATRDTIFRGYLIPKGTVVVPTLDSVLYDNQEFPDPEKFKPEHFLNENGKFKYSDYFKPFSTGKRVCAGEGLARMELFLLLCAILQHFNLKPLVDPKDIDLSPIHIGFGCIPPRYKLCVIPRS
Sequence of CYP2C9 (P11712 whole entry): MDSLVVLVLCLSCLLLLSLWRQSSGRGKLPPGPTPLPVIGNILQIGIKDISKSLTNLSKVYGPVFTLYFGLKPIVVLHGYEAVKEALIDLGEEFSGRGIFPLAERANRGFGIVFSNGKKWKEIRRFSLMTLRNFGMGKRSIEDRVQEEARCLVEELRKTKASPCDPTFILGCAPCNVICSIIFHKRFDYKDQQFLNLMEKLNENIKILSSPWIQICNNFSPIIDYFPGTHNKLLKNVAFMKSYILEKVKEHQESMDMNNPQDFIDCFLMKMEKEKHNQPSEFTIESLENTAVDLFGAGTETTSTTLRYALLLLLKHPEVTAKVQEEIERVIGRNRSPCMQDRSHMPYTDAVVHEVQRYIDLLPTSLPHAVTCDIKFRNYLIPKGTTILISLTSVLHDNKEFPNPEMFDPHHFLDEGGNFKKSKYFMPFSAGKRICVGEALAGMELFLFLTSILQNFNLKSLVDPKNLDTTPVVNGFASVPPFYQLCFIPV

Cc1cc(C)cc(OCC2CNC(=O)O2)c1 (stereo not drawn) [metaxalone, 5-[(3,5-dimethylphenoxy)methyl]-2-oxazolidinone]
% Turnover Mean (CYP2B6; 0.75 μM metaxalone, 5 pmol cyp): −6.8%
[metaxalone] Mean (CYP2B6; 0.75 μM metaxalone, 5 pmol cyp): 0.845 µM
% Turnover % (CYP2B6; [4]): −11.0% and −2.8% and −6.6%
[metaxalone] (CYP2B6; [4]): 0.878 µM and 0.813 µM and 0.843 µM
% Turnover Mean (CYP2B6; [5]): −1.8%
[metaxalone] Mean (CYP2B6; [5]): 0.805 µM
% Turnover % (CYP2B6; [6]): 5.5% and −6.7% and −4.0%
[metaxalone] (CYP2B6; [6]): 0.748 µM and 0.845 µM and 0.823 µM
% Turnover Mean (CYP2B6; 7.5 μM metaxalone, 5 pmol cyp): 3.0%
[metaxalone] Mean (CYP2B6; 7.5 μM metaxalone, 5 pmol cyp): 8.20 µM
% Turnover % (CYP2B6; 7.5 μM metaxalone, 5 pmol cyp): −1.3%
% Turnover % (CYP2B6; [7]): 3.0% and 7.2%
[metaxalone] (CYP2B6; [7]): 8.56 µM and 8.19 µM and 7.84 µM
% Turnover Mean (CYP2B6; 7.5 μM metaxalone, 20 pmol cyp): −0.20%
[metaxalone] Mean (CYP2B6; 7.5 μM metaxalone, 20 pmol cyp): 8.46 µM
% Turnover % (CYP2B6; 7.5 μM metaxalone, 20 pmol cyp): −6.0%
% Turnover % (CYP2B6; [8]): 1.8% and 3.6%
[metaxalone] (CYP2B6; [8]): 8.95 µM and 8.29 µM and 8.14 µM
Substrate (CYP2B6; CYP isozyme 2B6, summary of studies): 0
Inducer/Inhibitor (CYP3A4 [1]): +
Specific Activity Mean ± SD (CYP3A4 [1]; Donor 2, Metaxalone 0.4 μM): 1.20 ± 0.109 pmol/min/million cells
6β-Hydroxytestosterone formation Adjusted Mean ± SD (CYP3A4 [1]; human): 0.116 ± 0.00524 µM
Specific Activity Mean ± SD (CYP3A4 [1]; human): <0.905 ± 0.0213 pmol/min/million cells
6β-Hydroxytestosterone formation Adjusted Mean ± SD (CYP3A4 [1]; human, 4 h, 4 μM): <0.100 ± 0.000 µM
Specific Activity Mean ± SD (CYP3A4 [1]; human, 48 h, 0.4 μM): <0.893 ± 0.000 pmol/min/million cells
effect on CYP3A4 activity (CYP3A4 [1]; human, hepatocytes, 48 h): did not induce CYP3A4 activity
induced CYP3A4 activity (CYP3A4 [1]; human, hepatocytes, 48 h, 40 μM): about 21%
% inhibition of turnover Mean (CYP3A4 [2]; [9]): 126%
Mean Conc. (CYP3A4 [2]; [9]): 0.831 µM
% inhibition of turnover (CYP3A4 [2]; [10]): 132% and 116% and 130%
Conc. (CYP3A4 [2]; [10]): 0.844 µM and 0.807 µM and 0.842 µM
% inhibition of turnover Mean (CYP3A4 [2]; [11]): 130%
Mean Conc. (CYP3A4 [2]; [11]): 9.13 µM
% Turnover (CYP3A4 [2]; [12]): 0.28%
% inhibition of turnover (CYP3A4 [2]; [12]): 98.8% and 161% and 129%
Conc. (CYP3A4 [2]; [12]): 8.49 µM and 9.78 µM and 9.12 µM
% Turnover Mean (CYP3A4 [2]; 0.75 μM): −7.71%
% Turnover Mean (CYP3A4 [2]; 7.5 μM): −7.26%
inhibition of CYP activity at a statistically significant level (CYP2C9; 0.3-100 μM metaxalone): no tested concentration of metaxalone inhibited activity
Inhibitor (CYP2C9; CYP isozyme 2C9, summary of studies): 0
Percent of VC (CYP2C9; metaxalone 0.3 μM): 81.4%
Specific Activity Individual (CYP2C9; metaxalone 0.3 μM): 36.3 pmol/min/mg protein and 35.8 pmol/min/mg protein and 36.2 pmol/min/mg protein
Specific Activity Mean ± SD (CYP2C9; metaxalone 0.3 μM): 36.1 ± 0.283 pmol/min/mg protein
Percent of VC (CYP2C9; metaxalone 1 μM): 81.6%
Specific Activity Individual (CYP2C9; metaxalone 1 μM): 40.3 pmol/min/mg protein and 37.5 pmol/min/mg protein and 30.6 pmol/min/mg protein
Specific Activity Mean ± SD (CYP2C9; metaxalone 1 μM): 36.2 ± 4.98 pmol/min/mg protein
Percent of VC (CYP2C9; metaxalone 3 μM): 81.2%
Specific Activity Individual (CYP2C9; metaxalone 3 μM): 34.8 pmol/min/mg protein and 34.0 pmol/min/mg protein and 39.1 pmol/min/mg protein
Specific Activity Mean ± SD (CYP2C9; metaxalone 3 μM): 36.0 ± 2.75 pmol/min/mg protein
Percent of VC (CYP2C9; metaxalone 30 μM): 91.0%
Specific Activity Individual (CYP2C9; metaxalone 30 μM): 39.9 pmol/min/mg protein and 38.3 pmol/min/mg protein and 42.8 pmol/min/mg protein
Specific Activity Mean ± SD (CYP2C9; metaxalone 30 μM): 40.3 ± 2.24 pmol/min/mg protein
Percent of VC (CYP2C9; metaxalone 100 μM): 87.4%
Specific Activity Individual (CYP2C9; metaxalone 100 μM): 43.4 pmol/min/mg protein and 36.6 pmol/min/mg protein and 36.3 pmol/min/mg protein
Specific Activity Mean ± SD (CYP2C9; metaxalone 100 μM): 38.8 ± 4.00 pmol/min/mg protein
% inhibition of turnover Mean (CYP2E1; 0.75 μM metaxalone): 113%
Mean Conc. (CYP2E1; 0.75 μM metaxalone): 0.802 µM
% Turnover (CYP2E1; 0.75 μM metaxalone): 5.6%
% inhibition of turnover (CYP2E1; 0.75 μM metaxalone): 104% and 154% and 81.4%
Conc. (CYP2E1; 0.75 μM metaxalone): 0.780 µM and 0.896 µM and 0.729 µM
% Turnover Mean (CYP2E1; 7.5 μM metaxalone): 0.356%
% inhibition of turnover Mean (CYP2E1; 7.5 μM metaxalone): 98.6%
Mean Conc. (CYP2E1; 7.5 μM metaxalone): 8.48 µM
% Turnover (CYP2E1; 7.5 μM metaxalone): 2.7%
% inhibition of turnover (CYP2E1; 7.5 μM metaxalone): 89.2% and 101% and 105%
Conc. (CYP2E1; 7.5 μM metaxalone): 8.29 µM and 8.54 µM and 8.63 µM
Metaxalone Present Adjusted Individual (CYP3A4 [3]; metaxalone 0.5 μM): 0.320 µM and 0.323 µM and 0.317 µM
Metaxalone Present Adjusted Mean ± SD (CYP3A4 [3]; metaxalone 0.5 μM): 0.320 ± 0.00333 µM
Metaxalone Present Raw (CYP3A4 [3]; metaxalone 0.5 μM): 0.1598 µM and 0.1616 µM and 0.1583 µM
Percent of Metabolic Negative Control Individual (CYP3A4 [3]; metaxalone 0.5 μM): 101% and 102% and 99.6%
Percent of Metabolic Negative Control Mean ± SD (CYP3A4 [3]; metaxalone 0.5 μM): 101 ± 1.05%
Metaxalone Present Adjusted Individual (CYP3A4 [3]; metaxalone 2.5 μM): 1.71 µM and 1.66 µM and 1.67 µM
Metaxalone Present Adjusted Mean ± SD (CYP3A4 [3]; metaxalone 2.5 μM): 1.68 ± 0.0289 µM
Metaxalone Present Raw (CYP3A4 [3]; metaxalone 2.5 μM): 0.8573 µM and 0.8292 µM and 0.8374 µM
Percent of Metabolic Negative Control Individual (CYP3A4 [3]; metaxalone 2.5 μM): 99.8% and 96.5% and 97.5%
Percent of Metabolic Negative Control Mean ± SD (CYP3A4 [3]; metaxalone 2.5 μM): 98.0 ± 1.68%
Percent of Metabolic Negative Control Individual (CYP3A4 [3]; metaxalone 25 μM): 98.1% and 97.1% and 99.3%
Percent of Metabolic Negative Control Mean ± SD (CYP3A4 [3]; metaxalone 25 μM): 98.1 ± 1.10%
